From paper PMC10373478, “Exploration and Exploitation Approaches Based on Generative Machine Learning to Identify Potent Small Molecule Inhibitors of α-Synuclein Secondary Nucleation” (Journal of Chemical Theory and Computation, 2023)

Molecular target: T1, α-synuclein (αS) (Homo sapiens, UniProt P37840)
T1 construct: gene SNCA
Experiment: seeded aggregation kinetics (ThT fluorescence) at […] compound
Assay type: biochemical

Structure (SMILES): CN1C(C(=O)Nc2ccccn2)=C(O)c2sc(Cl)cc2S1(=O)=O [lornoxicam]
- seeded aggregation kinetics (ThT fluorescence) at 25 and 50 μM compound: The potency of lornoxicam was mild in comparison to hits found previously, but it was nonetheless observable
